ChEMBL document CHEMBL1156829 (Proc Natl Acad Sci U S A, 2008)

Legend:
[1] = system: Plasmodium falciparum; test: NOVARTIS: Inhibition of Plasmodium falciparum 3D7 (drug-susceptible) proliferation in erythrocyte-based infection assay; format: functional, organism-based; settings: Plasmodium falciparum, 3D7
[2] = NOVARTIS: Cytotoxicity against human hepatocellular carcinoma cell line (Huh7); format: toxicity, cell-based, Huh-7; settings: Huh7 cells (hepatocellular carcinoma cell line)
[3] = system: Plasmodium falciparum; test: NOVARTIS: Inhibition of Plasmodium falciparum W2 (drug-resistant) proliferation in erythrocyte-based infection assay; format: functional, organism-based; settings: Plasmodium falciparum, W2; read-out: EC50

SMILES	EC50 [1] [nM]	CC50 [2] [nM]	EC50 [3] [nM]
CCCN1CCC(NC2CCCc3c2[nH]c2ccc([N+](=O)[O-])cc32)CC1 (stereo not given)	1160	28000	3630
O=c1c2sccc2nc(SCc2cc(=O)n3ccccc3n2)n1Cc1ccccc1	> 1250	> 10000	1280
CCC(=O)N1CCN(C(=O)c2ccc(C)cc2)C1	> 1500	> 10000	1280
CCOc1ccccc1C=NNc1nc(Nc2ccccc2)nc(Nc2ccccc2)n1	2050	> 10000	> 1250
CCOc1ccc(-n2cc(-c3ccccc3)c3c(SCc4cc(C)ccc4C)ncnc32)cc1	2010	> 10000	> 1250
Cc1ccc(Nc2nc(NN=Cc3ccc(-c4ccc(Cl)c([N+](=O)[O-])c4)o3)nc(N3CCOCC3)n2)c(Br)c1	> 1060	> 10000	1320
CN(C)c1ccc(C=NNc2nc(N)nc(N)n2)cc1	2000	> 10000	> 1250
CC(=O)N1CCc2cc(Br)cc(S(=O)(=O)N3CCCC(C)C3)c21 (stereo not given)	> 1730	> 10000	1320
O=C(C1CC=CCC1)N1CCCC(c2ncncc2-c2ccncc2)C1 (stereo not given)	1370	> 10000	> 1250
COC(=O)C1N(C(=O)OC)c2ccc([N+](=O)[O-])cc2S1(=O)=O (stereo not given)	362	> 10000	> 1280
O=C(NC(CN1CCCC1)c1ccccc1)C1CCCCN1S(=O)(=O)c1ccccc1 (stereo not given)	632	> 10000	1260
N#CC(c1ccc(C(F)(F)F)cc1)c1ccc2c(C(F)(F)F)cc(C(F)(F)F)nc2n1 (stereo not given)	413	2510	316
CCc1ccc2c(c1)C(c1ccncc1)=NNC(c1ccncc1)=N2	887	> 10000	> 1300
COc1cccc(C(=O)N(CCCC(C)Nc2cc(OC)cc3cccnc23)Cc2ccc(OC)c(OC)c2)c1 (stereo not given)	1480	> 4010	513
Oc1ccc(-c2cncc(NCc3ccccc3)n2)cc1	1750	> 10000	> 1250
O=C(NCc1ccccc1)c1cnc(NCCCn2ccnc2)nc1NC1CCCC1	624	> 10000	1320
O=C(Nc1cccc(-c2nc3ccccc3[nH]2)c1)c1ccccc1[N+](=O)[O-]	> 1720	> 6000	> 772
COc1ccc(CCNC(=O)c2cc(S(=O)(=O)N3CC(C)CC(C)C3)ccc2Sc2ccc(F)cc2)cc1OC (stereo not given)	1050	> 10000	1260

SMILES	EC50 [1] [nM]	CC50 [2] [nM]	EC50 [3] [nM]
CCC(c1nc2ccccc2c(=O)n1-c1cccc(C)c1)N(CCc1ccccc1)C(=O)Nc1c(C(C)C)cccc1C(C)C (stereo not given)	1070	> 8510	1100
Cc1nc(Oc2ccc3ccc(=O)oc3c2)c2c3c(sc2n1)CCCCC3	2300	> 10000	> 1250
Oc1cccc(-c2cncc(-c3cccnc3)n2)c1	1300	> 10000	1290
COC(=O)c1c(S(=O)(=O)N2CCN(C)CC2)sc2c1CCN(CCCc1ccccc1)C2	1420	> 10000	1260
COc1ccc(Cl)cc1-n1c(-c2cccnc2)n[nH]c1=S	1870	> 10000	> 1250
Oc1ccc(-c2nc3ccccc3s2)cc1CN1CCCCC1	1140	> 6130	786
COCCNCc1cc2cc3c(cc2n(Cc2cccc(F)c2)c1=O)OCO3	> 1250	> 10000	1270
CCC(C)N(CCC(=O)N1CCN(Cc2ccccc2)CC1)C(=O)Nc1cccc(Cl)c1Cl (stereo not given)	> 1560	> 8390	> 1060
O=C1c2ccccc2-c2nc3ccc(C(F)(F)F)cc3nc21	1140	> 10000	1260
Cc1nc(N2CCCCC2)c2c(C)c(C(=O)N3CCN(c4ccccc4F)CC3)sc2n1	> 1540	> 10000	1300
Oc1ccccc1-c1nc(-c2ccccc2)nc(-c2ccc(Br)cc2)n1	> 1160	> 10000	> 1280
COc1ccc(C2CC(c3ccccc3Cl)n3ncnc3N2C(=O)C2CC2)cc1 (stereo not given)	1320	> 10000	> 1280
O=C(COc1ccccc1)Nc1nccs1	> 1250	> 10000	1260
C/C(Cl)=C/Cc1c(C)nc2c(ccc3ccccc32)c1O	857	> 10000	1280
CC(NC(=O)Cc1ccc(F)cc1)C(c1cccs1)N1CCOCC1 (stereo not given)	2010	> 10000	> 1250
CCCN1CCC(N2C[C@@H](NC3CCCCCCC3)C[C@H]2C(=O)NCCc2ccc3c(c2)OCO3)CC1	> 1360	> 10000	> 1300
CC1(C)CN=C(N2CCN(CC(O)COc3ccc(OCC(O)CN4CCN(C5=NCC(C)(C)S5)CC4)cc3)CC2)S1 (stereo not given)	2420	> 10000	> 1250
